Assay results as given in patent publication US8138194B2, “Fused bicyclic pyrimidine compounds as aurora kinase inhibitors” (National Health Research Institutes, priority 2008, dated 2012).
Several values for one entry are separate records, joined by “and”; a condition that tells them apart may be missing. Identical values can stand only once.

Target: T1, GST-tAurora A (123-401aa) fusion protein (Homo sapiens, UniProt O14965)
T1 construct: GST-tAurora A (123-401aa) fusion protein; made in house; host or cells: Sf9 insect cells (baculovirus, pBacPAK8)
T1 sequence (O14965 123-401): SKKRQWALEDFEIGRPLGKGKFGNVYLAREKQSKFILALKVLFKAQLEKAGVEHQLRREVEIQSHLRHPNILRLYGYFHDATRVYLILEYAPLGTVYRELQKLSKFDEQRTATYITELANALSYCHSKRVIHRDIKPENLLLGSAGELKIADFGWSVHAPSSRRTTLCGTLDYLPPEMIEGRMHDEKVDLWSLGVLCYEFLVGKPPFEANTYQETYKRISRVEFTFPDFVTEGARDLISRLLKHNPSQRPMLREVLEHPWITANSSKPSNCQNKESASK
Experiment: Aurora Kinase A luminescent kinase assay
Format: biochemical
Conditions: IC50 (concentration of a test compound at which activity of 50% of Aurora A is inhibited)
Protocol: The Aurora A catalytic domain with an N-terminal GST tag was constructed in pBacPAK8 plasmid and expressed in sf9 cells. […] To concentrate GST-tAurora A, buffer was replaced with Tris buffer (100 mM Tris (pH 7.5), 300 mM NaCl, 1 mM EDTA, 4 mM DTT) using Amicon ultra-15 (MWCO:30K, Millipore) to 2.4 mg/ml. After the addition of equal volume of glycerol and 0.04% Triton X-100, the proteins were stored aliquoted at −80° C.
Briefly, a test compound, enzyme, substrate-tetra(LRRWSLG), DTT and ATP were dissolved in Aur buffer (50 mM Tris-HCl pH 7.4, 10 mM NaCl, 10 mM MgCl2, and 100 μg/ml BSA) individually before the assay. […] 5 μM ATP (5 μl), 1 mM DTT (5 μl) and 0.1 mM tetra(LRRWSLG) peptide substrate (5 μl) were added into the reactions of test compounds and GST-tAurora A. The reactions were incubated at 37° C. for 90 min. 50 μl of Kinase-Glo Plus Reagent (V3771, Promega) was added into the reactions, followed by the incubation at 25° C. for 20 min.

Row | Structure (SMILES) | IC50
1 | Oc1ccc(CCNc2ncnc3oc(-c4ccccc4)c(-c4ccccc4)c23)cc1 [Compound 4] | < 1000 nM
2 | CNC(=O)Nc1ccc(CCNc2ncnc3oc(-c4ccccc4)c(-c4ccccc4)c23)cc1 [Compound 8] | 45 to 400 nM and < 1000 nM
3 | CN(C)C(=O)Nc1ccc(CCNc2ncnc3oc(-c4ccccc4)c(-c4ccccc4)c23)cc1 [Compound 9] | 45 to 400 nM and < 1000 nM
4 | S=C(Nc1ccccc1)Nc1ccc(CCNc2ncnc3oc(-c4ccccc4)c(-c4ccccc4)c23)cc1 [Compound 13] | 45 to 400 nM and < 1000 nM
5 | O=C(Nc1ccc(CCNc2ncnc3oc(-c4ccccc4)c(-c4ccccc4)c23)cc1)Nc1cccc(Cl)c1 [Compound 15] | 45 to 400 nM and < 1000 nM
6 | O=C(Nc1ccc(CCNc2ncnc3oc(-c4ccccc4)c(-c4ccccc4)c23)cc1)Oc1ccccc1 [Compound 17] | 45 to 400 nM and < 1000 nM
7 | O=C(Nc1ccccc1)Oc1ccc(CCNc2ncnc3oc(-c4ccccc4)c(-c4ccccc4)c23)cc1 [Compound 18] | 45 to 400 nM and < 1000 nM
8 | O=C(NCCCl)Nc1ccc(CCNc2ncnc3oc(-c4ccccc4)c(-c4ccccc4)c23)cc1 [Compound 19] | 45 to 400 nM and < 1000 nM
9 | O=C(NCCN1CCOCC1)Nc1ccc(CCNc2ncnc3oc(-c4ccccc4)c(-c4ccccc4)c23)cc1 [Compound 20] | 45 to 400 nM and < 1000 nM
10 | Nc1ccc(CCOc2ncnc3oc(-c4ccccc4)c(-c4ccccc4)c23)cc1 [Compound 26] | < 1000 nM
11 | O=C(Nc1ccc(CCNc2ncnc3oc(-c4ccccc4)c(-c4ccccc4)c23)cc1)N1CCN(CCO)CC1 [Compound 34] | < 1000 nM
12 | COc1cccc(NC(=O)Nc2ccc(CCNc3ncnc4oc(-c5ccccc5)c(-c5ccccc5)c34)cc2)c1 [Compound 40] | < 1000 nM
13 | COC(=O)C(Cc1ccc(NC(=O)Nc2ccccc2)cc1)Nc1ncnc2oc(-c3ccccc3)c(-c3ccccc3)c12 (stereo not drawn) [Compound 52] | < 1000 nM and 45 to 400 nM
14 | COc1cccc(-c2c(-c3ccccc3)oc3ncnc(NCCc4ccc(NC(=O)Nc5ccccc5)cc4)c23)c1 [Compound 59] | 45 to 400 nM and < 1000 nM
15 | O=C(Nc1ccc(CCNc2ncnc3oc(-c4ccccc4)c(-c4ccccc4)c23)cc1)Nc1ccc(F)c(F)c1 [Compound 62] | 45 to 400 nM and < 1000 nM
16 | O=C(Nc1ccc(CCNc2ncnc3oc(-c4ccccc4)c(-c4ccccc4)c23)cc1)Nc1cc(F)cc(F)c1 [Compound 63] | 45 to 400 nM and < 1000 nM
17 | CC(=O)Nc1cccc(NC(=O)Nc2ccc(CCNc3ncnc4oc(-c5ccccc5)c(-c5ccccc5)c34)cc2)c1 [Compound 64] | < 1000 nM
18 | COc1ccc(-c2oc3ncnc(NCCc4ccc(NC(=O)Nc5ccccc5)cc4)c3c2-c2ccc(O)cc2)cc1 [Compound 66] | 45 to 400 nM and < 1000 nM
19 | S=C(Nc1ccc(CCNc2ncnc3oc(-c4ccccc4)c(-c4ccccc4)c23)cc1)Oc1ccccc1 [Compound 74] | < 1000 nM
20 | O=C(Nc1ccccc1)Nc1ccc(CCNc2ncnc3oc(-c4ccccc4)c(-c4cccc(O)c4)c23)cc1 [Compound 78] | 45 to 400 nM and < 1000 nM
21 | O=C(Nc1ccc(CCNc2ncnc3oc(-c4ccccc4)c(-c4ccccc4)c23)cc1)Nc1cccc(F)c1F [Compound 91] | 45 to 400 nM and < 1000 nM
22 | O=C(Nc1ccc(CCNc2ncnc3oc(-c4ccccc4)c(-c4ccccc4)c23)cc1)Nc1c(F)cccc1F [Compound 94] | < 1000 nM
23 | CCOC(=O)c1c(-c2ccccc2)oc2ncnc(NCCc3ccc(NC(=O)Nc4ccccc4)cc3)c12 [Compound 107] | < 1000 nM
24 | CN1CCN(Cc2ccc(NC(=O)Nc3ccc(CCNc4ncnc5oc(-c6ccccc6)c(-c6ccccc6)c45)cc3)cc2)CC1 [Compound 118] | < 1000 nM
25 | CN(C)Cc1cccc(NC(=O)Nc2ccc(CCNc3ncnc4oc(-c5ccccc5)c(-c5ccccc5)c34)cc2)c1 [Compound 119] | < 1000 nM and 45 to 400 nM
26 | CN1CCN(Cc2ccccc2NC(=O)Nc2ccc(CCNc3ncnc4oc(-c5ccccc5)c(-c5ccccc5)c34)cc2)CC1 [Compound 126] | < 1000 nM

Results, then the molecule that gave them:

Row | IC50 | Structure (SMILES)
27 | < 1000 nM | Nc1ccc(CNc2ncnc3oc(-c4ccccc4)c(-c4ccccc4)c23)cc1 [Compound 1, N-(4-aminobenzyl)-5,6-diphenylfuro[2,3-d]pyrimidin-4-amine]
28 | < 1000 nM | Nc1ccc(CCNc2ncnc3oc(-c4ccccc4)c(-c4ccccc4)c23)cc1 [Compound 3, N-(4-aminophenethyl)-5,6-diphenylfuro[2,3-d]pyrimidin-4-amine]
29 | 45 to 400 nM and < 1000 nM | O=C(Nc1ccc(CCNc2ncnc3oc(-c4ccccc4)c(-c4ccccc4)c23)cc1)c1ccccc1 [Compound 5]
30 | < 1000 nM | NC(=O)Nc1ccc(CCNc2ncnc3oc(-c4ccccc4)c(-c4ccccc4)c23)cc1 [Compound 7]
31 | 45 to 400 nM and < 1000 nM | O=C(NCc1ccccc1)Nc1ccc(CCNc2ncnc3oc(-c4ccccc4)c(-c4ccccc4)c23)cc1 [Compound 10]
32 | < 1000 nM | O=C(Nc1ccc(CCNc2ncnc3oc(-c4ccccc4)c(-c4ccccc4)c23)cc1)Nc1cccc(Br)c1 [Compound 16]
33 | < 1000 nM | O=C(Nc1ccc(CCNc2ncnc3oc(-c4ccccc4)c(-c4ccccc4)c23)cc1)N1CCN(c2ccc(F)cc2)CC1 [Compound 22]
34 | 45 to 400 nM and < 1000 nM | O=C(Nc1ccccc1)Nc1ccc(CCOc2ncnc3oc(-c4ccccc4)c(-c4ccccc4)c23)cc1 [Compound 27]
35 | 45 to 400 nM and < 1000 nM | Cc1cccc(NC(=O)Nc2ccc(CCNc3ncnc4oc(-c5ccccc5)c(-c5ccccc5)c34)cc2)c1 [Compound 28]
36 | 45 to 400 nM and < 1000 nM | O=C(Nc1ccc(CCNc2ncnc3oc(-c4ccccc4)c(-c4ccccc4)c23)cc1)Nc1cccc(C(F)(F)F)c1 [Compound 29]
37 | 45 to 400 nM and < 1000 nM | N#Cc1cccc(NC(=O)Nc2ccc(CCNc3ncnc4oc(-c5ccccc5)c(-c5ccccc5)c34)cc2)c1 [Compound 30]
38 | 45 to 400 nM and < 1000 nM | CC(=O)c1cccc(NC(=O)Nc2ccc(CCNc3ncnc4oc(-c5ccccc5)c(-c5ccccc5)c34)cc2)c1 [Compound 31]
39 | 45 to 400 nM and < 1000 nM | O=C(Nc1ccc(CCNc2ncnc3oc(-c4ccccc4)c(-c4ccccc4)c23)cc1)Nc1cccc([N+](=O)[O-])c1 [Compound 32]
40 | 45 to 400 nM and < 1000 nM | O=C(Cc1ccccc1)Nc1ccc(CCNc2ncnc3oc(-c4ccccc4)c(-c4ccccc4)c23)cc1 [Compound 41]
41 | < 1000 nM and 45 to 400 nM | O=C(Nc1ccc(CCNc2ncnc3oc(-c4ccccc4)c(-c4ccccc4)c23)cc1)NN1CCCCC1 [Compound 45]
42 | 45 to 400 nM and < 1000 nM | COc1ccc(-c2c(-c3ccccc3)oc3ncnc(NCCc4ccc(NC(=O)Nc5ccccc5)cc4)c23)cc1 [Compound 56]
43 | 45 to 400 nM and < 1000 nM | CCCNC(=O)Nc1ccc(CCNc2ncnc3oc(-c4ccccc4)c(-c4ccccc4)c23)cc1 [Compound 67]

Row | IC50 | Structure (SMILES)
44 | < 1000 nM | CCCCCNC(=O)Nc1ccc(CCNc2ncnc3oc(-c4ccccc4)c(-c4ccccc4)c23)cc1 [Compound 68]
45 | < 1000 nM | CCCCCCNC(=O)Nc1ccc(CCNc2ncnc3oc(-c4ccccc4)c(-c4ccccc4)c23)cc1 [Compound 69]
46 | 45 to 400 nM and < 1000 nM | O=C(Nc1ccc(CCNc2ncnc3oc(-c4ccccc4)c(-c4ccccc4)c23)cc1)NC1CCCC1 [Compound 70]
47 | 45 to 400 nM and < 1000 nM | O=C(Nc1ccc(CCNc2ncnc3oc(-c4ccccc4)c(-c4ccccc4)c23)cc1)NC1CCCCC1 [Compound 71]
48 | < 1000 nM | COc1ccc(NC(=O)Nc2ccc(CCNc3ncnc4oc(-c5ccccc5)c(-c5ccccc5)c34)cc2)cc1 [Compound 72]
49 | 45 to 400 nM and < 1000 nM | O=C(Nc1ccc(CCNc2ncnc3oc(-c4ccccc4)c(-c4ccccc4)c23)cc1)Nc1ccc2c(c1)OCO2 [Compound 73]
50 | < 1000 nM | N#C/N=C(\Nc1ccccc1)Nc1ccc(CCNc2ncnc3oc(-c4ccccc4)c(-c4ccccc4)c23)cc1 [Compound 75]
51 | 45 to 400 nM and < 1000 nM | O=Cc1ccc(-c2c(-c3ccccc3)oc3ncnc(NCCc4ccc(NC(=O)Nc5ccccc5)cc4)c23)o1 [Compound 76]
52 | 45 to 400 nM and < 1000 nM | O=C(Nc1ccccc1)Nc1ccc(CCNc2ncnc3oc(-c4ccccc4)c(-c4ccc([N+](=O)[O-])cc4)c23)cc1 [Compound 77]
53 | < 1000 nM | C[Si](C)(C)C#Cc1c(-c2ccccc2)oc2ncnc(NCCc3ccc(NC(=O)Nc4ccccc4)cc3)c12 [Compound 81]
54 | < 1000 nM | COc1ccc(NC(=O)Nc2ccc(CCNc3ncnc4oc(-c5ccccc5)c(-c5ccccc5)c34)cc2)cc1OC [Compound 95]
55 | 45 to 400 nM and < 1000 nM | O=C(Nc1ccc(CCNc2ncnc3oc(-c4ccccc4)c(-c4ccccc4)c23)cc1)Nc1ccccc1[N+](=O)[O-] [Compound 97]
56 | 45 to 400 nM and < 1000 nM | Cc1ccc(NC(=O)Nc2ccc(CCNc3ncnc4oc(-c5ccccc5)c(-c5ccccc5)c34)cc2)cc1 [Compound 98]
57 | < 1000 nM | CN(C)c1ccc(NC(=O)Nc2ccc(CCNc3ncnc4oc(-c5ccccc5)c(-c5ccccc5)c34)cc2)cc1 [Compound 100]
58 | < 1000 nM | CN1CCN(Cc2cccc(NC(=O)Nc3ccc(CCNc4ncnc5oc(-c6ccccc6)c(-c6ccccc6)c45)cc3)c2)CC1 [Compound 122]
59 | < 1000 nM | O=C(Nc1ccc(CCNc2ncnc3oc(-c4ccccc4)c(-c4ccccc4)c23)cc1)Nc1ccccc1CN1CCCCC1 [Compound 124]
60 | 45 to 400 nM and < 1000 nM | O=C(Nc1ccc(CCNc2ncnc3oc(-c4ccccc4)c(-c4ccccc4)c23)cc1)Nc1ccccn1 [Compound 146]
